“And” between values parts separate entries of the source, which are not always exact repeats. Equal entries are not always repeated.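 Protocol summary: plate cells (96-well), add compound at 5 concentrations, incubate 48 h, interpolate endpoints linearly. At the GI50, growth is halved. The concentration for full growth arrest is given as TGI.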 A value given as a limit tells only on which side of the number the result lay.

Some test systems named below: BT-549 breast; HL-60(TB) leukemia; HS 578T breast; MDA-MB-435; NCI-H23 lung; NCI-H460 lung; NCI/ADR-RES ovarian; SR leukemia; UACC-257 melanoma; CCRF-CEM leukemia.
Common to all, as to assay: NCI anticancer screen, dose series, 48 h

As to `O=C(Nc1ccc(OS(=O)(=O)c2ccc(F)cc2)cc1)C12CC3CC(CC(C3)C1)C2`, the GI50 with BT-549 breast was 4.37 µM; with HL-60(TB) leukemia, more than 29 µM; with HS 578T breast, 5.9 µM; in the experiment with MDA-MB-435 it was more than 27.9 µM; in the experiment on NCI-H23 lung it was 10.1 µM; in the experiment with NCI-H460 lung, 8.09 µM. Moreover, the GI50 was 3.15 µM in the experiment on NCI/ADR-RES ovarian, 2.03 µM in the experiment on SR leukemia and 11 µM with UACC-257 melanoma. Besides, the TGI in the experiment with BT-549 breast is 75.8 µM; in the experiment on HL-60(TB) leukemia it was more than 100 µM; in the experiment on HS 578T breast, more than 53.2 µM; in the experiment on MDA-MB-435, more than 100 µM; in the experiment with NCI-H23 lung it was more than 100 µM; with NCI-H460 lung, more than 100 µM. The TGI with NCI/ADR-RES ovarian, in the experiment with SR leukemia and with UACC-257 melanoma was more than 100 µM throughout.
`COc1ccc(C(=O)/C=C/c2sc(Cl)nc2Cl)cc1`: the GI50 in the experiment on BT-549 breast was 0.332 µM; with CCRF-CEM leukemia, 0.267 µM; in the experiment on HL-60(TB) leukemia it was 1.95 µM; in the experiment on HS 578T breast, 3.29 µM; in the experiment on MDA-MB-435 it was 3.11 µM; with NCI-H23 lung it was 0.973 µM. Moreover, the GI50 with NCI-H460 lung is 3.17 µM; with NCI/ADR-RES ovarian, 2.55 µM; in the experiment with UACC-257 melanoma it was 3.26 µM. Also, the TGI in the experiment on BT-549 breast was 1.7 µM; in the experiment on CCRF-CEM leukemia it was 14.7 µM; with HL-60(TB) leukemia, 4.63 µM; in the experiment with HS 578T breast, 18.6 µM; with MDA-MB-435 it was 11.4 µM; in the experiment with NCI-H23 lung, 3.39 µM. Further, the values for the TGI with NCI-H460 lung, in the experiment with NCI/ADR-RES ovarian and with UACC-257 melanoma were 10.6 µM, 10.2 µM and 12.7 µM, respectively.
With `CNC(=O)c1cc(Oc2ccc3nc(NC(=O)Nc4ccc(CN5CCOCC5)c(C(F)(F)F)c4)sc3c2)ccn1`, the GI50 with BT-549 breast is 3.02 µM; with CCRF-CEM leukemia, 2.73 µM; in the experiment on HL-60(TB) leukemia, 2.7 µM; in the experiment with HS 578T breast, 2.55 µM; in the experiment on MDA-MB-435, 1.83 µM; in the experiment with NCI-H23 lung, 1.7 µM. Also, the GI50 is 2.01 µM in the experiment with NCI-H460 lung, 2.07 µM in the experiment with NCI/ADR-RES ovarian and 2.16 µM in the experiment on UACC-257 melanoma. The TGI was 9.18 µM in the experiment with BT-549 breast; more than 100 µM with CCRF-CEM leukemia; 7.41 µM with HL-60(TB) leukemia; 9.6 µM in the experiment with HS 578T breast; 4.38 µM in the experiment with MDA-MB-435; 4.22 µM in the experiment on NCI-H23 lung. In addition, the TGI was 4.33 µM with NCI-H460 lung, 5.37 µM with NCI/ADR-RES ovarian and 5.59 µM in the experiment on UACC-257 melanoma.
Take `O=C(NC1CCN(Cc2ccccc2)CC1)c1cc(-c2cccnc2)nc2ccc(Cl)cc12`: the GI50 in the experiment on BT-549 breast is 24.8 µM; in the experiment on HL-60(TB) leukemia it was 8.27 µM; with HS 578T breast, 9.9 µM; in the experiment on MDA-MB-435 it was 9.96 µM; in the experiment with NCI-H23 lung, 18 µM; with NCI-H460 lung it was 4.24 µM. The GI50 with NCI/ADR-RES ovarian is 15.6 µM; in the experiment on SR leukemia, 2.71 µM; in the experiment with UACC-257 melanoma it was more than 100 µM. In addition, the TGI was more than 100 µM with BT-549 breast; 45.2 µM with HL-60(TB) leukemia; 39.4 µM in the experiment on HS 578T breast; more than 100 µM in the experiment on MDA-MB-435; more than 100 µM in the experiment on NCI-H23 lung; 21.7 µM with NCI-H460 lung. In addition, the values for the TGI in the experiment on NCI/ADR-RES ovarian, in the experiment with SR leukemia and in the experiment on UACC-257 melanoma were more than 100 µM, 12.9 µM and more than 100 µM, respectively.
With `COc1ccccc1-n1cnc(N)c1C(=O)c1cc(OC)c(OC)c(OC)c1`, the GI50 in the experiment on BT-549 breast was 3.55 µM; in the experiment on CCRF-CEM leukemia it was 2.69 µM; in the experiment with HL-60(TB) leukemia, 3.12 µM; with HS 578T breast it was 2.16 µM; with MDA-MB-435, 1.07 µM; in the experiment with NCI-H23 lung, 9.5 µM. The GI50 with NCI-H460 lung was 3.47 µM; in the experiment on NCI/ADR-RES ovarian, 13.1 µM; in the experiment on SR leukemia it was 1.92 µM. Also, the TGI in the experiment with BT-549 breast is 66.2 µM; with CCRF-CEM leukemia, more than 100 µM; in the experiment with HL-60(TB) leukemia it was more than 100 µM; with HS 578T breast, 7.69 µM; in the experiment with MDA-MB-435, 3.81 µM; with NCI-H23 lung it was more than 100 µM. The TGI in the experiment with NCI-H460 lung, in the experiment on NCI/ADR-RES ovarian and in the experiment with SR leukemia was more than 100 µM throughout.
Turning to `CC(=O)N[C@H](C)[C@@H](O)[C@@H](C)[C@@H]1OC(=O)/C=C/C=C(C)\C=C\[C@]2(C)C[C@@H](NS(C)(=O)=O)C=C[C@@H]2/C=C(C)/C=C/[C@H]1C`, the GI50 with BT-549 breast is 0.00898 µM and 0.0242 µM; with HL-60(TB) leukemia, 0.00579 µM and 0.0124 µM; in the experiment with HS 578T breast, 0.0158 µM and 0.0164 µM; in the experiment on MDA-MB-435, 0.00268 µM and 0.00435 µM; in the experiment with NCI-H23 lung it was 0.0493 µM; in the experiment on NCI-H460 lung it was 0.00812 µM and 0.0174 µM. Moreover, the GI50 with NCI/ADR-RES ovarian was 0.235 µM and 0.127 µM; in the experiment with SR leukemia, 0.00606 µM and 0.00719 µM; with UACC-257 melanoma it was 0.0227 µM and 0.00967 µM. Moreover, the TGI in the experiment with BT-549 breast, in the experiment on HL-60(TB) leukemia, in the experiment on HS 578T breast, in the experiment on MDA-MB-435, in the experiment with NCI-H23 lung and in the experiment on NCI-H460 lung was more than 43.5 µM throughout. The TGI in the experiment with NCI/ADR-RES ovarian, with SR leukemia and in the experiment on UACC-257 melanoma was more than 43.5 µM in each case.
Regarding `O=C1/C(=C/c2cccnc2)SC(=S)N1Cc1ccco1`, the TGI is more than 100 µM with BT-549 breast; 14.5 µM in the experiment with CCRF-CEM leukemia; more than 22 µM with HL-60(TB) leukemia; more than 22.1 µM in the experiment on HS 578T breast; 5.54 µM in the experiment with MDA-MB-435; more than 100 µM in the experiment on NCI-H23 lung. Also, the TGI in the experiment with NCI-H460 lung is 25.1 µM; with NCI/ADR-RES ovarian, more than 100 µM; in the experiment with UACC-257 melanoma, more than 31.5 µM.
For `O=C1Cc2c(-c3ccccc3)cc(-c3ccccc3)nc2-c2ccccc2N1`, the TGI in the experiment on BT-549 breast was 22.5 µM; in the experiment on CCRF-CEM leukemia, more than 100 µM; in the experiment on HL-60(TB) leukemia, more than 100 µM; in the experiment with HS 578T breast, 19 µM; in the experiment on MDA-MB-435 it was more than 100 µM; in the experiment on NCI-H23 lung, 36.6 µM. Besides, the TGI in the experiment with NCI-H460 lung is 29.6 µM; in the experiment on NCI/ADR-RES ovarian, 18.6 µM; in the experiment on UACC-257 melanoma it was more than 100 µM.
Consider `CCCCCC/C=C/C#CCCCCCCCC(=O)O`, for which the TGI in the experiment with BT-549 breast, in the experiment on CCRF-CEM leukemia, with HL-60(TB) leukemia, with HS 578T breast, with MDA-MB-435 and in the experiment with NCI-H23 lung was more than 100 µM throughout. Besides, the TGI with NCI-H460 lung, with NCI/ADR-RES ovarian and in the experiment with UACC-257 melanoma was more than 100 µM in each case.

For the origin of these results see PubChem BioAssay (NCI).
